# Reference: patent US6479435B1, “Diaryl ethers and processes for their preparation and herbicidal and desiccant compositions containing them” (ISK Americas Incorporated, priority 1997, dated 2002)
# What was measured:
# Assay in all cases: Pre-emerge greenhouse herbicide test, phytotoxicity rating
# Format in all cases: in vivo
# [1] = tested on: large crabgrass (Digitaria sanguinalis, DIGSA); settings: Digitaria sanguinalis, pre-emergence, 336 h, 14 days after application, rating scale 0-100; for pest or weed control at 125 g/ha: Rate 125 g al/ha; for pest or weed control at 500 g/ha: Rate 500 g al/ha
# Outline: (§1)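 Visual 0–100 injury rating (100 = all plants dead) taken 14 days after treatment. Rates of 125–1000 g ai/ha in acetone, 187 l/ha, were sprayed onto soil one day post-sowing; pots were surface-watered to incorporate, then bottom-watered.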
# [2] = tested on: ivyleaf morningglory (Ipomoea hederacea, IPOHE); settings: Ipomoea, pre-emergence, 336 h, 14 days after application, rating scale 0-100; for pest or weed control at 125 g/ha: Rate 125 g al/ha; for pest or weed control at 500 g/ha: Rate 500 g al/ha
# Outline: as §1
# [3] = tested on: velvetleaf (Abutilon theophrasti, ABUTH); settings: Abutilon theophrasti, pre-emergence, 336 h, 14 days after application, rating scale 0-100; for pest or weed control at 125 g/ha: Rate 125 g al/ha; for pest or weed control at 500 g/ha: Rate 500 g al/ha
# Outline: as §1
Structure (SMILES),pest or weed control at 125 g/ha [1] [%],pest or weed control at 500 g/ha [1] [%],pest or weed control at 125 g/ha [2] [%],pest or weed control at 500 g/ha [2] [%],pest or weed control at 125 g/ha [3] [%],pest or weed control at 500 g/ha [3] [%]
"Nn1c(C(F)(F)F)cc(=O)n(-c2cc(Oc3ccc(Br)cn3)c(Cl)cc2F)c1=O [Compound 9-2, 1-Amino-3-[4-chloro-2-fluoro-5-(5-bromo-2-pyridyloxy)phenyl]-6-trifluoromethyl-1,2,3,4-tetrahydropyrimidine-2,4-dione]",95,100,0,100,30,100
"Nn1c(C(F)(F)F)cc(=O)n(-c2cc(Oc3ccc(Cl)cn3)c(Cl)cc2F)c1=O [Compound 9-3, 1-Amino-3-[4-chloro-2-fluoro-5-(5-chloro-2-pyridyloxy)phenyl]-6-trifluoromethyl-1,2,3,4-tetrahydropyrimidine-2,4-dione]",95,100,40,100,100,100
"Nn1c(C(F)(F)F)cc(=O)n(-c2cc(Oc3cccc(Cl)n3)c(Cl)cc2F)c1=O [Compound 9-5, 1-Amino-3-[4-chloro-2-fluoro-5-(6-chloro-2-pyridyloxy)phenyl]-6-trifluoromethyl-1,2,3,4-tetrahydropyrimidine-2,4-dione]",95,100,70,50,100,100
"Nn1c(C(F)(F)F)cc(=O)n(-c2cc(Oc3nc(F)c(F)cc3F)c(Cl)cc2F)c1=O [Compound 9-6, 1-Amino-3-[4-chloro-2-fluoro-5-(3,5,6-trifluoro-2-pyridyloxy)phenyl]-6-trifluoromethyl-1,2,3,4-tetrahydropyrimidine-2,4-dione]",100,100,90,95,100,100
"Nn1c(C(F)(F)F)cc(=O)n(-c2cc(Oc3ncccc3C(F)(F)F)c(Cl)cc2F)c1=O [Compound 9-7, 1-Amino-3-[4-chloro-2-fluoro-5-(3-trifluoromethyl-2-pyridyloxy)phenyl]-6-trifluoromethyl-1,2,3,4-tetrahydropyrimidine-2,4-dione]",100,100,70,100,100,100
"Nn1c(C(F)(F)F)cc(=O)n(-c2cc(Oc3cc(C(F)(F)F)ccn3)c(Cl)cc2F)c1=O [Compound 9-8, 1-Amino-3-[4-chloro-2-fluoro-5-(4-trifluoromethyl-2-pyridyloxy)phenyl]-6-trifluoromethyl-1,2,3,4-tetrahydropyrimidine-2,4-dione]",20,100,95,100,100,100
"N#Cc1cccnc1Oc1cc(-n2c(=O)cc(C(F)(F)F)n(N)c2=O)c(F)cc1Cl [Compound 9-9, 1-Amino-3-[4-chloro-2-fluoro-5-(3-cyano-2-pyridyloxy)phenyl]-6-trifluoromethyl-1,2,3,4-tetrahydropyrimidine-2,4-dione]",100,100,100,100,100,100
"N#Cc1ccc(Oc2cc(-n3c(=O)cc(C(F)(F)F)n(N)c3=O)c(F)cc2Cl)nc1 [Compound 9-10, 1-Amino-3-[4-chloro-2-fluoro-5-(5-cyano-2-pyridyloxy)phenyl]-6-trifluoromethyl-1,2,3,4-tetrahydropyrimidine-2,4-dione]",90,100,100,100,100,100
"Nn1c(C(F)(F)F)cc(=O)n(-c2cc(Oc3ccc([N+](=O)[O-])cn3)c(Cl)cc2F)c1=O [Compound 9-11, 1-Amino-3-[4-chloro-2-fluoro-5-(5-nitro-2-pyridyloxy)phenyl]-6-trifluoromethyl-1,2,3,4-tetrahydropyrimidine-2,4-dione]",30,95,10,100,100,100
"Cc1nsc(Oc2cc(-n3c(=O)cc(C(F)(F)F)n(N)c3=O)c(F)cc2Cl)c1[N+](=O)[O-] [Compound 9-14, 1-Amino-3-[4-Chloro-2-fluoro-5-(3-methyl-4-nitroisothiazol-5-yloxy)phenyl]-6-trifluoromethyl-1,2,3,4-tetrahydropyrimidine-2,4-dione]",100,100,100,100,100,100
"Nn1c(C(F)(F)F)cc(=O)n(-c2cc(Oc3ccccn3)c(Cl)cc2F)c1=O [Compound 9-15, 1-amino-3-[4-chloro-2-fluoro-5-(2pyridyloxy)phenyl]-6-trifluoromethyl-1,2,3,4-tetrahydropyrimidine-2,4-dione]",100,10,100,100,100,100
"Nn1c(C(F)(F)F)cc(=O)n(-c2cc(Oc3ncccn3)c(Cl)cc2F)c1=O [Compound 9-16, 1-Amino-3-[4-chloro-2-fluoro-5-(2-pyrimidyloxy)phenyl]-6-trifluoromethyl-1,2,3,4-tetrahydropyrimidine-2,4-dione]",100,100,100,100,100,100
"Nn1c(C(F)(F)F)cc(=O)n(-c2cc(Oc3nccc(Cl)n3)c(Cl)cc2F)c1=O [Compound 9-17, 1-Amino-3-[4-chloro-2-fluoro-5-(4-chloro-2-pyrimidyloxy)phenyl]-6-trifluoromethyl-1,2,3,4-tetrahydropyrimidine-2,4-dione]",30,100,20,100,100,100
"Nn1c(C(F)(F)F)cc(=O)n(-c2cc(Oc3ccccc3[N+](=O)[O-])c(Cl)cc2F)c1=O [Compound 9-21, 1-amino-3-[4-chloro-2-fluoro-5-(2-nitrophenoxy)phenyl]-6-trifluoromethyl-1,2,3,4-tetrahydropyrimidine-2,4-dione]",100,100,60,100,100,100
"Nn1c(C(F)(F)F)cc(=O)n(-c2cc(Oc3ccc([N+](=O)[O-])cc3C(F)(F)F)c(Cl)cc2F)c1=O [Compound 9-22, 1-Amino-3-[4-chloro-2-fluoro-5-(4-nitro-2-trifluoromethylphenoxy)phenyl]-6-trifluoromethyl-1,2,3,4-tetrahydropyrimidine-2,4-dione]",80,100,90,80,100,100
"Nn1c(C(F)(F)F)cc(=O)n(-c2cc(Oc3cc([N+](=O)[O-])cc(C(F)(F)F)c3)c(Cl)cc2F)c1=O [Compound 9-23, 1-Amino-3-[4-chloro-2-fluoro-5-(3-nitro-5-trifluoromethylphenoxy)phenyl]-6-trifluoromethyl-1,2,3,4-tetrahydropyrimidine-2,4-dione]",10,95,0,0,40,100
"Nn1c(C(F)(F)F)cc(=O)n(-c2cc(Oc3ccccc3C(F)(F)F)c(Cl)cc2F)c1=O [Compound 9-24, 1-amino-3-[4-chloro-2-fluoro-5-(2-trifluoromethylphenoxy)phenyl]-6-trifluoromethyl-1,2,3,4-tetrahydropyrimidine-2,4-dione]",90,100,30,30,99,100
"Nn1c(C(F)(F)F)cc(=O)n(-c2cc(Oc3ccccc3)c(Cl)cc2F)c1=O [Compound 9-26, 1-Amino-3-[4-chloro-2-fluoro-5-phenoxyphenyl]-6-trifluoromethyl-1,2,3,4-tetrahydropyrimidine-2,4-dione]",100,100,100,60,100,100
